# According to publication PMC5487684, “Safety, Pharmacokinetics, and Antiviral Activity of a Novel HIV Antiviral, ABX464, in Treatment-Naive HIV-Infected Subjects in a Phase 2 Randomized, Controlled Study” (Antimicrobial Agents and Chemotherapy, 2017):
# “Also recorded” adds a separate entry of the source. Where two headings read alike, the source gives them in different places.
# What was measured:
# [1] = system: HIV; design: method as in PMID 25889234; conditions: cited from earlier work
# [2] = system: healthy subjects; conditions: cited from earlier work
# [3] = cited from earlier work
# [4] = system: CD4 and CD8 cell counts; assay: CD4 and CD8 cell counts in HIV-infected subjects; format: in vivo, human
# Protocol: Plasma samples were analyzed for ABX464 and ABX464-NGlc using validated bioanalytical methods by Atlanbio (Saint Nazaire, France) according to good laboratory practices. Pharmacokinetic parameters were calculated by noncompartmental analysis (NCA), using Phoenix WinNonlin software (Pharsight Corporation) running on a personal computer. On day 1, the following PK parameters were generated: Cmax, the time to Cmax (Tmax), lag time (tlag), elimination rate constant (kel), area under the concentration-time curve (AUC) from time zero to time t (AUC0–t), AUC from time zero to infinity (AUC0–∞), apparent clearance (CL/F), and apparent volume of distribution (V/F). On the other days of PK assessment, only Cmax, Tmax, tlag, kel, and AUC0–t were generated. […] The HIV viral load was analyzed in the prequalified individual local study center laboratories. CD4 and CD8 cell counts were also determined in the local study center laboratories. With respect to the viral load, changes in the log-transformed viral load values between 24 h postdose and predose were calculated on each day, and a comparison between each dose level and pooled placebo data was made. Moreover, the rate of success (defined as a decrease in the viral load value of at least 0.5 log) was evaluated for each treatment (including placebo) and compared between treatments.
# [5] = system: HIV replication in macrophages; design: method as in PMID 25889234; conditions: in vitro; cited from earlier work
# [6] = Plasma pharmacokinetics of ABX464 and ABX464-NGlc in HIV-infected subjects; format: in vivo, human; conditions: for AUC(0-inf) / Cmax / half-life / Tmax: human, plasma, po
# Protocol: (§1) Plasma samples were analyzed for ABX464 and ABX464-NGlc using validated bioanalytical methods by Atlanbio (Saint Nazaire, France) according to good laboratory practices. Pharmacokinetic parameters were calculated by noncompartmental analysis (NCA), using Phoenix WinNonlin software (Pharsight Corporation) running on a personal computer. On day 1, the following PK parameters were generated: Cmax, the time to Cmax (Tmax), lag time (tlag), elimination rate constant (kel), area under the concentration-time curve (AUC) from time zero to time t (AUC0–t), AUC from time zero to infinity (AUC0–∞), apparent clearance (CL/F), and apparent volume of distribution (V/F). On the other days of PK assessment, only Cmax, Tmax, tlag, kel, and AUC0–t were generated. The secondary analysis concerned pharmacodynamic (PD) activity, as expressed by CD4 and CD8 levels and viral load across time. The HIV viral load was analyzed in the prequalified individual local study center laboratories. CD4 and CD8 cell counts were also determined in the local study center laboratories. With respect to the viral load, changes in the log-transformed viral load values between 24 h postdose and predose were calculated on each day, and a comparison between each dose level and pooled placebo data was made. Moreover, the rate of success (defined as a decrease in the viral load value of at least 0.5 log) was evaluated for each treatment (including placebo) and compared between treatments.
# [7] = system: HIV; assay: HIV viral load (HIV-1 RNA copies per milliliter) in treatment-naive HIV-infected patients; format: in vivo; conditions: for Change in log10 no. of RNA copies/ml from that at the baseline: Group 1 (25 mg every 3 days, fasted)
# Protocol: Safety assessments and laboratory tests were carried out according to the schedules described in Table S4 for groups dosed every day, every 3 days, and 3 times a day. Follow-up visits were scheduled for 7 days after the last dose and subsequently once every week in order to assess the elimination of the main ABX464 metabolite and to assess the viral load. Follow-up visits were terminated when the virus load was within 0.5 log of the baseline value or after 3 follow-up visits, whichever came first. Prior to the statistical analyses, AEs were coded using the Medical Dictionary for Regulatory Activities (MedDRA dictionary; last available version) in order to be tabulated by system organ class (SOC) and preferred term (PT). The AEs were analyzed according to the treatment emergence phase from the first study drug administration on day 1 up to 48 h after the last study drug administration. The number and percentage of subjects with at least one TEAE were tabulated by SOC and PT for each group and dose. The number of occurrences of TEAEs was also analyzed in the same way by SOC and PT for each group and dose, by grade of severity for each group and dose, and by level of causality to the study drug for each group and dose.
# as §1
# No formal sample size determination was done. The aim of the study was to obtain reliable and consistent data and to expose a limited number of subjects to ABX464. To achieve this aim, six subjects per group received ABX464. A mixed model analysis of covariance of the changes in the viral load compared to that at the baseline was conducted on log-transformed values. Baseline parameters and age were covariates, treatment groups were fixed effects, and subjects were random effects.
# [8] = Non-infected, single oral 50mg (fasted), N 17
# [9] = Non-infected, single oral 50mg (fasted), N 23
compound,measurement,setting,value
FC(F)(F)Oc1ccc(Nc2ccc3cccc(Cl)c3n2)cc1 [ABX464],Virus replication in two humanized mouse models of HIV infection,[1],substantially reduced virus replication
same,Mice with an undetectable viral load,"[1]; humanized mice, after 2 to 3 weeks of treatment",30%
same,Virus rebound after termination of therapy,"[1]; vs cART-treated control animals, over 6 weeks after treatment termination",substantially lower virus rebound
same,"Tolerability in healthy volunteers, food effect and repeated dosing study",[2],good tolerability profile
same,"Tolerability in healthy subjects, first-in-human study","[2]; single ascending oral dose, up to 150 mg",very well tolerated; also recorded: well tolerated
same,"AUC0-∞, GM",[3]; [8],43.93 ng·h/mL
same,"AUC0-∞, Mean",[3]; [8],51.74 ng·h/mL
same,"t1/2, GM",[3]; [8],0.83 h
same,"t1/2, Mean",[3]; [8],0.88 h
same,"Cmax, GM",[3]; [9],13.70 ng/mL
same,"Cmax, Mean",[3]; [9],17.70 ng/mL
same,"tmax, Mean",[3]; [9],1.5 h
same,Metabolism in human subjects,"[3]; healthy subjects, single ascending oral dose",rapidly and substantially metabolized into ABX464-N-glucuronide
same,CD4 profile,[4]; each ABX464 dose,no trend associated with product use or dose
same,Mean changes in the CD8 cell counts from baseline,"[4]; human, in vivo",did not show any particular trend
same,Inhibition of HIV replication in macrophage culture,[5],can inhibit HIV replication
same,Concomitant food effect on relative bioavailability,[6]; fed vs fasted,substantial increase in the relative bioavailability
same,AUC(0-inf),"[6]; 50 mg, HIV-infected, single oral 50mg (fasted), N 7, read-out: AUC0-∞, GM",42.8 ng·h/mL
same,AUC(0-inf),"[6]; 50 mg, HIV-infected, single oral 50mg (fasted), N 7, read-out: AUC0-∞, Mean",55.4 ng·h/mL
same,Cmax,"[6]; 50 mg, HIV-infected, single oral 50mg (fasted), N 7, read-out: Cmax, GM",14.9 ng/mL
same,Cmax,"[6]; 50 mg, HIV-infected, single oral 50mg (fasted), N 7, read-out: Cmax, Mean",19.4 ng/mL
same,half-life,"[6]; 50 mg, HIV-infected, single oral 50mg (fasted), N 7, read-out: t1/2, GM (converted)",0.94 h
same,half-life,"[6]; 50 mg, HIV-infected, single oral 50mg (fasted), N 7, read-out: t1/2, Mean (converted)",0.96 h
same,Tmax,"[6]; 50 mg, HIV-infected, single oral 50mg (fasted), N 7, read-out: tmax, GM",1.8 h
same,Tmax,"[6]; 50 mg, HIV-infected, single oral 50mg (fasted), N 7, read-out: tmax, Mean",1.9 h
same,half-life,"[6]; HIV-infected subjects, oral, read-out: half-life (t1/2) (converted)",~1 h
same,Subjects demonstrating an antiviral response,[7]; 75 mg once a day,16%
same,Subjects demonstrating an antiviral response,[7]; 100 mg once a day,33%
same,Subjects demonstrating an antiviral response,[7]; 150 mg once a day,66%
same,"Mixed model analysis, RNA viral load Day 2 to Day 14, Treatment Group Estimate",[7]; ABX464 150 mg once a day vs. Placebo,-0.1559
same,Measurements demonstrating a 0.5 log10 decrease over the treatment period,[7]; ABX464-treated subjects,49 measurements
same,Change in log10 no. of RNA copies/ml from that at the baseline,"[7]; subject 102, day 4",−0.99 log10 no. of RNA copies/ml
same,Change in log10 no. of RNA copies/ml from that at the baseline,"[7]; subject 102, day 5",−1.47 log10 no. of RNA copies/ml
same,Change in log10 no. of RNA copies/ml from that at the baseline,"[7]; subject 102, day 7",−1.36 log10 no. of RNA copies/ml
same,Change in log10 no. of RNA copies/ml from that at the baseline,"[7]; subject 102, day 8",−1.57 log10 no. of RNA copies/ml
same,Change in log10 no. of RNA copies/ml from that at the baseline,"[7]; subject 102, day 10",−1.43 log10 no. of RNA copies/ml
same,Change in log10 no. of RNA copies/ml from that at the baseline,"[7]; subject 102, day 11",−1.61 log10 no. of RNA copies/ml
same,Change in log10 no. of RNA copies/ml from that at the baseline,"[7]; subject 102, day 13",−1.4 log10 no. of RNA copies/ml
same,Change in log10 no. of RNA copies/ml from that at the baseline,"[7]; subject 102, day 14",−1.51 log10 no. of RNA copies/ml
same,Change in log10 no. of RNA copies/ml from that at the baseline,"[7]; subject 105, day 14",−0.5 log10 no. of RNA copies/ml
same,Change in log10 no. of RNA copies/ml from that at the baseline,"[7]; subject 105, day 16",−0.52 log10 no. of RNA copies/ml
same,Change in log10 no. of RNA copies/ml from that at the baseline,"[7]; subject 105, day 17",−0.65 log10 no. of RNA copies/ml
same,Change in log10 no. of RNA copies/ml from that at the baseline,"[7]; subject 106, day 5",−0.72 log10 no. of RNA copies/ml
same,Change in log10 no. of RNA copies/ml from that at the baseline,"[7]; subject 106, day 11",−0.56 log10 no. of RNA copies/ml
same,Change in log10 no. of RNA copies/ml from that at the baseline,"[7]; subject 106, day 13",−0.62 log10 no. of RNA copies/ml
